Measured values published in patent publication US20240376094A2, “SELECTIVE BCL-XL PROTAC COMPOUNDS AND METHODS OF USE” (Les Laboratoires Servier, priority 2021, published 2024).

Key:
Type in all cases: cell-based
[1] = test system: MOLT-4 cells; experiment: MOLT-4 cell viability, MTT assay; conditions: Homo sapiens, MOLT-4, 48 h
Description: The MTT colorimetric assay is based on the mitochondrial reduction of tetrazolium salt by living cells. The viable cell number is proportional to the production of formazan salts, which can be read spectrophotometrically at 540 nm. The CTG luminescent assay (CellTiter GLO, Promega) is based on a reagent which lyses cells and measures total adenosine triphosphate (ATP) content. The viable cell number is proportional to the production of ATP.
MOLT-4 cells were purchased from ATCC and cultivated in RPMI 1640 supplemented with 10% heat inactivated fetal bovine serum, penicillin (100 IU/mi), streptomycin (100 μg/ml) and L-glutamine (2 mM). Cells were cultured at 37° C. in a humidified atmosphere containing 5% […].
For MTT assay, cells were seeded in 96 microwell plates (150 μL per well) and exposed to the compounds for 48 h (3.16 fold serially diluted; 9 concentrations each, triplicates). At the end of incubation time, 15 μL of MTT solution (5 mg/ml) were added per well and the cells were incubated for another 4 h. Then, 100 μL of 10% Sodium Dodecyl Sulfate (SDS)/HCl 10 mM were added per well and the plate was incubated overnight, before measurement of optical density at 540 nm.
IC50, were calculated using standard four-parametric curve fitting. IC50 is defined as the compound concentration at which the MTT or CTG signal is reduced to 50% of that measured for the control. Results shown in Table 14 represent the mean of at least 2 independent experiments.

[2] = target: T1, Bcl-xL (Homo sapiens, UniProt Q07817); experiment: HCT116 Bcl-xL degradation, capillary-based immunoassay (WES); conditions: for DC50: HCT116, 24 h, 9-point serial dilution; for remaining activity at 0.01 µM / remaining activity at 0.1 µM: HCT-116, 24 h, % of untreated cells; for remaining activity at 0.01 µM: HCT116, 10 nM; for remaining activity at 0.1 µM: HCT116, 100 nM
T1 construct: Measured levels of Bcl-xL protein of HCT116 cells treated with the tested compounds; host or cells: HCT116
Procedure, shortened: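 Bcl-xL protein level by capillary WES immunoassay in HCT116 lysates, as % of untreated after cofilin normalization. Compound exposure was 24 h at 10 and 100 nM and/or a 9-point series, in quadruplicate. Four-parameter fitting gave the DC50.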

[3] = target: T2, HiBiT-tagged BCL-xL (Homo sapiens, UniProt Q07817); experiment: NCI-H1650 BCL-xL protein levels, Nano-Glo HiBiT Lytic Detection; conditions: NCI-H1650 expressing HiBiT-tagged BCL-xL, overnight incubation, read-out: Bcl-xl HIBIT NCIH1650 DC50
T2 construct: expressed in transfected cells; host or cells: NCI-H1650 (ATCC No. CRL-5883), engineered HiBiT cell line
Procedure, shortened: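 HiBiT luminescence after cell lysis with LgBiT/furimazine reagent reported BCL-xL levels, expressed relative to untreated wells and fitted with a four-parameter logistic equation. Engineered NCI-H1650 cells were exposed overnight at 37° C to compound at final 0.508 nM-10 μM (10 points, triplicate plates).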

[4] = test system: COR-L105; experiment: CellTiter-Glo proliferation assay, COR-L105; conditions: Homo sapiens, COR-L105, 120 h, COR-L105, 5 days; for Emax: read-out: COR-L105 Span (max)
Procedure: (§1) The BCL-xL degrader compounds were tested against two endogenous cancer cell lines: • COR-L105: ECACC No. 92031918 cultured in RPMI-1640+10% FBS • NCI-H1650: (ATCC No. CRL-5883 cultured in RPMI-1640+10% FBS
(§2) The ability of the BCL-xL degrader low molecular weight compounds to inhibit cell proliferation and survival was assessed using the Promega CellTiter-Glo® proliferation assay.
(§3) Cell lines were cultured in media that is optimal for their growth at 5% CO2, 37° C. in a tissue culture incubator. Prior to seeding for the proliferation assay, the cells were split at least 2 days before the assay to ensure optimal growth density. On the day of seeding, adherent cells were lifted off tissue culture flasks using 0.25% trypsin. Cell viability and cell density were determined using a cell counter (Vi-Cell XR Cell Viability Analyzer, Beckman Coulter). Cells with higher than 85% viability were seeded for the assay.
(§4) The COR-105 cell line was seeded in white, clear bottom 384-well TC treated plates (Corning cat. #3765). Cells were seeded at a density of 1,000 cells per well in 45 μL of standard growth media. Plates were incubated at 5% CO2, 37° C. overnight in a tissue culture incubator. The NCI-H1650 cell line was seeded in black, clear round bottom 384-well ultra-low attachment spheroid microplates (Corning cat. #3830). Cells were seeded at a density of 3,000 cells per well in 45 uL of standard growth media. Plates were spun in a centrifuge for 5 minutes and 1,000 RPM. Plates were incubated at 5% CO2, 37° C. for 72 hours in a tissue culture incubator.
(§5) On the day of dosing, BCL-xL degrader low molecular weight compounds were prepared at 1 OX in standard growth media. The prepared drug treatments were then added to the cells resulting in final concentrations of 0.508 nM-10 μM and a final volume of 50 μL per well. Each drug concentration was tested in quadruplets. Plates were incubated at 5% CO2, 37° C. for 5 days in a tissue culture incubator.
(§6) For COR-L105 plates, cell viability was assessed through the addition of 25 μL of CellTiter Glo® (Promega, cat #G7573), a reagent which lyses cells and measures total adenosine triphosphate (ATP) content. Plates were incubated at room temperature for 10 minutes to stabilize luminescent signals prior to reading with a luminescence reader (EnVision Multilabel Plate Reader, PerkinElmer). For NCI-H1650 plates, cell viability was assessed through the addition of 40 μL of CellTiter Glo® 3D Cell Viability Assay substrate (Promega, cat #G9681), a reagent which lyses cells and measures total adenosine triphosphate (ATP) content. Wells were mixed thoroughly and plates were incubated at room temperature for 30 minutes to stabilize luminescent signals prior to reading using a luminescence reader (EnVision Multilabel Plate Reader, PerkinElmer).
(§7) To evaluate the effect of the drug treatments, luminescent counts from wells containing untreated cells (100% viability) were used to normalize treated samples. A variable slope model was applied to fit a nonlinear regression curve to the data in GraphPad PRISM version 7.02 software. IC50 and Amax values were extrapolated from the resultant curves. The concentrations of treatment required to inhibit 50% of cell growth or survival (IC50) were calculated with representative IC50 values of the cell lines tested summarized in Table 11.

[5] = test system: EBC-1 lung cancer cell line; experiment: EBC-1 cell proliferation, CellTiter-Glo assay; conditions: Homo sapiens, 120 h; Ebc-1 cell viability, CTG assay, 5 days of treatment; read-out: CTG 5 day Ebc1 GI50
Procedure, shortened: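 CellTiter-Glo read-out after 5-day compound treatment, normalised to untreated cells, with GI50 derived by four-parameter logistic regression. Ten concentrations spanning 0.508 nM–10 μM were added to 1000 EBC-1 cells per well the day after seeding. Assays required at least one cell doubling versus Day 0.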

[6] = test system: NCI-H1650; experiment: CellTiter-Glo 3D proliferation assay, NCI-H1650 spheroids; conditions: Homo sapiens, NCI-H1650, 120 h, 5 days; for Emax: read-out: NCI-H1650 Span (Amax)
Procedure: as §1, §2, §3, §4, §5, §6, §7

T1 sequence (Q07817 whole entry): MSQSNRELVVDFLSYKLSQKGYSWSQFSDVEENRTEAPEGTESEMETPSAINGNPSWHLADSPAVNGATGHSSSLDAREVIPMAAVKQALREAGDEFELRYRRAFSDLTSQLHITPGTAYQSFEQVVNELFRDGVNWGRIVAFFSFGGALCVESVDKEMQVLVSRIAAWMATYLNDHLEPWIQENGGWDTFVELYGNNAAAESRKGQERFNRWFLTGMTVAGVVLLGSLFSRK
T2 sequence (Q07817 whole entry): as above

IC50 [1]	DC50 [2]	remaining activity at 0.01 µM [2]	remaining activity at 0.1 µM [2]	DC50 [3]	GI50 [5]	IC50 [6]	Compound	IC50 [4]	Emax [4]	Emax [6]
0.398 nM	> 316 nM	48%	43%				Cc1c(Nc2nc3ccccc3s2)nnc2c1CCCN2c1ccc(-c2cnn(CC34CC5(C)CC(C)(C3)CC(OCCN(C)CCCCCCCCOc3ccc6c(c3)C(=O)N(C3CCC(=O)NC3=O)C6=O)(C5)C4)c2C)c(C(=O)O)n1 (centres unmarked) [Example 10, 6-[3-(1,3-benzothiazol-2-ylamino)-4-methyl-6,7-dihydro-5H-pyrido[2,3-c]pyridazin-8-yl]-3-[1-[[3-[2-[8-[2-(2,6-dioxo-3-piperidyl)-1,3-dioxo-isoindolin-5-yl]oxyoctyl-methyl-amino]ethoxy]-5,7-dimethyl-1-adamantyl]methyl]-5-methyl-pyrazol-4-yl]pyridine-2-carboxylic acid]			
2.72 nM	6.6 nM	52%	52%				Cc1ncsc1-c1ccc(CNC(=O)[C@@H]2C[C@@H](O)CN2C(=O)[C@@H](NC(=O)CCCC(=O)N2CCN(CC#Cc3ccc(OCCCc4sc(N5CCCc6c5nnc(Nc5nc7ccccc7s5)c6C)nc4C(=O)O)c(F)c3)CC2)C(C)(C)C)cc1 [Example 18, 2-[3-(1,3-benzothiazol-2-ylamino)-4-methyl-6,7-dihydro-5H-pyrido[2,3-c]pyridazin-8-yl]-5-[3-[2-fluoro-4-[3-[4-[5-[[(1S)-1-[(2S,4R)-4-hydroxy-2-[[4-(4-methylthiazol-5-yl)phenyl]methylcarbamoyl]pyrrolidine-1-carbonyl]-2,2-dimethyl-propyl]amino]-5-oxo-pentanoyl]piperazin-1-yl]prop-1-ynyl]phenoxy]propyl] thiazole-4-carboxylic acid]			
				18 nM	5 nM	258 nM	Cc1ncsc1-c1ccc(CNC(=O)[C@@H]2C[C@@H](O)CN2C(=O)[C@@H](NC(=O)C2(F)CC2)C(C)(C)C)c(OCCCCCCCCCN2CCN(CC#Cc3ccc(OCCCc4sc(N5CCCc6c5nnc(Nc5nc7ccccc7s5)c6C)nc4C(=O)O)c(F)c3)CC2)c1 [Example 57, 2-(3-(benzo[d]thiazol-2-ylamino)-4-methyl-6,7-dihydropyrido [2,3-c]pyridazin-8(5H)-yl)-5-(3-(2-fluoro-4-(3-(4-(9-(2-(((2S,4R)-1-((S)-2-(1-fluorocyclopropane-1-carboxamido)-3,3-dimethylbutanoyl)-4-hydroxypyrrolidine-2-carboxamido)methyl)-5-(4-methylthiazol-5-yl)phenoxy)nonyl)piperazin-1-yl)prop-1-yn-1-yl)phenoxy)propyl)thiazole-4-carboxylic acid]	3630 nM	72.5%	126%
						188 nM	Cc1ncsc1-c1ccc(CNC(=O)[C@@H]2C[C@@H](O)CN2C(=O)[C@@H](NC(=O)C2(F)CC2)C(C)(C)C)c(OCc2ccc(CN3CCN(CC#Cc4ccc(OCCCc5sc(N6CCCc7c6nnc(Nc6nc8ccccc8s6)c7C)nc5C(=O)O)c(F)c4)CC3)cc2)c1 [Example 58, 2-(3-(benzo[d]thiazol-2-ylamino)-4-methyl-6,7-dihydropyrido [2,3-c]pyridazin-8(5H)-yl)-5-(3-(2-fluoro-4-(3-(4-(4-((2-(((2S,4R)-1-((S)-2-(1-fluorocyclopropane-1-carboxamido)-3,3-dimethylbutanoyl)-4-hydroxypyrrolidine-2-carboxamido)methyl)-5-(4-methylthiazol-5-yl)phenoxy)methyl)benzyl)piperazin-1-yl)prop-1-yn-1-yl)phenoxy)propyl)thiazole-4-carboxylic acid]	481 nM	85.5%	98.2%
						119 nM	Cc1ncsc1-c1ccc(CNC(=O)[C@@H]2C[C@@H](O)CN2C(=O)[C@@H](NC(=O)C2(F)CC2)C(C)(C)C)c(OCCN(C)CC(=O)N2CCN(CC#Cc3ccc(OCCCc4sc(N5CCCc6c5nnc(Nc5nc7ccccc7s5)c6C)nc4C(=O)O)c(F)c3)CC2)c1 [Example 59, 2-(3-(benzo[d]thiazol-2-ylamino)-4-methyl-6,7-dihydropyrido [2,3-c]pyridazin-8(5H)-yl)-5-(3-(2-fluoro-4-(3-(4-(N-(2-(2-(((2S,4R)-1-((S)-2-(1-fluorocyclopropane-1-carboxamido)-3,3-dimethylbutanoyl)-4-hydroxypyrrolidine-2-carboxamido)methyl)-5-(4-methylthiazol-5-yl)phenoxy)ethyl)-N-methylglycyl)piperazin-1-yl)prop-1-yn-1-yl)phenoxy)propyl)thiazole-4-carboxylic acid]	2430 nM	105%	77.9%
358 nM							Cc1cc(N(CCCCNC(=O)CCOCCOCCOCCOCCNc2cccc3c2C(=O)N(C2CCC(=O)NC2=O)C3=O)c2nc(C(=O)O)c(CCCOc3ccc(C#CCN(C)C)cc3F)s2)nnc1Nc1nc2ccccc2s1 (centres unmarked) [Example 149, 2-[[6-(1,3-benzothiazol-2-ylamino)-5-methyl-pyridazin-3-yl]-[4-[3-[2-[2-[2-[2-[[2-(2,6-dioxo-3-piperidyl)-1,3-dioxo-isoindolin-4-yl]amino]ethoxy]ethoxy]ethoxy]ethoxy]propanoylamino]butyl]amino]-5-[3-[4-[3-(dimethylamino)prop-1-ynyl]-2-fluoro-phenoxy]propyl]thiazole-4-carboxylic acid]			
